# Columns and labels:
# [1] = tested on: monocyte-derived cytokines; experiment: Monocyte-derived cytokines in peripheral blood mononuclear cells (Example 39); format: cell-based, human
# Method: (§1) Specifically, either 3′SL or 6′SL is added, at concentrations of 0.1 mg/mL, 0.2 mg/mL, or 0.5 mg/mL to fresh peripheral blood mononuclear cells and incubated at 37° C. in 5% CO2 to pretreat the cells for approximately 24 hours. LNnT is added, at concentrations of 0.1 mg/mL, 0.2 mg/mL, or 1 mg/mL to fresh peripheral blood mononuclear cells and incubated at 37° C. in 5% CO2 to pretreat the cells for approximately 24 hours. Lactose is included as a carbohydrate control. Matched endotoxin unit concentration controls are included to allow differentiation of ingredient effects from inherent low levels of endotoxin. Some variables are then incubated with RSV at a multiplicity of infection (MOI) of 0.1 for approximately 1 hour at 37° C. in 5% in CO2. Uninfected control variables are incubated with medium for approximately 1 hour at 37° C. in 5% CO2. After approximately one hour, fresh medium alone, or fresh medium containing the appropriate concentration of 3′SL, 6′SL, LNnT, lactose, or endotoxin is added to the appropriate tubes and the cells are incubated for 48 hours at 37° C. in 5% CO2. Supernatants are collected at 24 and 48 hours post-infection.
# (§2) Cytokines are measured in supernatants for each variable at 24 and 48 hours to assess the effects of HMOs on the early immune response to RSV. Cytokines are measured using custom Bio-Plex Human cytokine kits from Bio-Rad. Results for interferon-inducible protein 10 (IP-10, also known as CXCL 10) are shown in FIGS. 3 and 4 for 3′SL and 6′SL, and in FIGS. 5 and 6 for LNnT. IP-10 is a CXC chemokine that attracts, binds to and activates the CXCR3 receptor on natural killer cells and memory T cells. IP-10 is expressed by monocytes and a number of other cells, and is induced by interferon. A positive correlation exists between RSV clinical disease severity in children (as measured by: length of hospital stay, fever, and number of days supplemental O2 is required) and serum IP-10. Therefore, a decrease in IP-10 signals a decrease in severity of RSV disease experienced.
# [2] = tested on: interleukin 10 (IL-10); experiment: IL-10 in PBMCs in the presence or absence of RSV (Example 45); format: cell-based, human; conditions: in the presence or absence of RSV (MOI 0.1); for IL-10 response, Donor A and Donor E: 0.1-2.0 mg/mL, FIGS. 20A, 20B; for IL-10 response, Donor B and Donor E: FIGS. 19A, 19B
# Method: Specifically, 3′SL and 6′SL are added individually at concentrations of 0.1 mg/mL, 0.2 mg/mL, or 0.5 mg/mL or in combination (Combo 1=1 part 3′SL to 1 part 6′SL; and Combo 2=1 part 3′SL to 2 parts 6′SL), at total concentrations of 0.2 mg/mL, 0.4 mg/mL, or 1.0 mg/mL to fresh PBMCs and incubated at 37° C. in 5% CO2 to pretreat the cells for approximately 24 hours. In a separate experiment, LNnT and 2′FL are added individually at concentrations of 0.1 mg/mL, 0.2 mg/mL, 1.0 mg/mL or 2.0 mg/mL to fresh PBMCs and incubated at 37° C. in 5% CO2 to pretreat the cells for approximately 24 hours. Lactose is included as a carbohydrate control. Matched endotoxin unit concentration controls are included to allow differentiation of ingredient effects from inherent low levels of endotoxin. After approximately 24 hours, some variables are then incubated with RSV at a multiplicity of infection (MOI) of 0.1 for approximately 1 hour at 37° C. in 5% in CO2. Uninfected control variables are incubated with medium for approximately 1 hour at 37° C. in 5% CO2. After approximately 1 hour, fresh medium alone or containing the appropriate concentrations of LNnT alone, 2′FL alone, 3′SL or 6′SL individually or in combination, lactose alone, or endotoxin alone is added to the appropriate variables, and the PBMCs were incubated for 48 hours at 37° C. in 5% CO2. Supernatants are collected at 24 and 48 hours post-infection. Cytokines are measured in supernatants for each variable at 24 and 48 hours to assess the effects of HMOs on the early immune response to RSV. Cytokines are measured using custom Bio-Plex Human cytokine kits from Bio-Rad.
# [3] = tested on: interleukin 10 (IL-10); experiment: IL-10 in peripheral blood mononuclear cells with or without RSV (Example 39); format: cell-based, human; conditions: in the presence or absence of RSV; FIGS. 7-10
# Method: as §1, with “After approximately one hour, fresh medium alone, or fresh medium containing the appropriate concentration of 3′SL, 6′SL, LNnT, lactose, or endotoxin is added to the appropriate tubes and the cells are incubated for 48 hours at 37° C. in 5% CO2. Supernatants are collected at 24 and 48 hours post-infection.” left out
# Cytokines are measured in supernatants for each variable at 24 and 48 hours to assess the effects of HMOs on the early immune response to RSV. Cytokines are measured using custom Bio-Plex Human cytokine kits from Bio-Rad. […] A positive correlation exists between RSV clinical disease severity in children (as measured by: length of hospital stay, fever, and number of days supplemental O2 is required) and serum IP-10. […]
# [4] = tested on: H1N1 influenza A virus (IAV); experiment: H1N1 influenza A virus replication (IAV M gene copy numbers) in 16HBE cells (Example 43); format: cell-based; conditions: 16HBE lung epithelial cells; MOI 0.01; FIG. 16
# [5] = tested on: respiratory syncytial virus (RSV); experiment: RSV replication (RSV NS1 copy numbers) in 16HBE lung epithelial cells (Example 42); format: cell-based; conditions: RSV MOI 1, FIGS. 13-15
# Method: Specifically, on Day −1, 16HBE cell monolayers are seeded in sufficient numbers to reach 95-100% confluence in 24 well places by Day 0. On day 0, either 2′FL (in concentrations of 1 μg/mL, 5 μg/mL, 10 μg/mL, 50 μg/mL, 100 μg/mL, 500 μg/mL, and 1000 μg/mL), LNnT (in concentrations of 10 μg/mL, 100 μg/mL, or 1000 μg/mL), or 3′SL (in concentrations of 5 μg/mL, 10 μg/mL, 50 μg/mL, 100 μg/mL, 500 μg/mL, and 1000 μg/mL) is added and incubated for approximately 24 hours at 37° C. in 5% CO2. On day 1, the cell supernatants are removed and the monolayers are incubated with medium alone or medium plus Respiratory Syncytial Virus (RSV) for approximately 1 hour at 37° C. in 5% CO2 at a multiplicity of infection (MOI) of 1. After approximately 1 hour, fresh medium alone or containing the appropriate concentrations of 2′FL 3′SL, or LNnT is added to the appropriate wells, and the cells are incubated for 48 hours at 37° C. in 5% CO2. On day 3, supernatants and cell lysates are collected separately, aliquotted and stored frozen at −70° C. for later analysis. Cell lysates are analyzed by TaqMan qRTPCR to assess viral replication through measurement of RSV NS1 copy numbers.
# [6] = tested on: interferon-inducible protein 10 (IP-10); experiment: IP-10 in RSV-infected peripheral blood mononuclear cells (Example 39); format: cell-based, human; conditions: for IP-10 level compared with uninfected controls / IP-10 in virus-infected variables: FIGS. 3-6; for IP-10 in virus-infected variables: both donors, 24 hour pretreatment, 0.1-0.5 mg/mL (LNnT 0.1-1 mg/mL); for reduction of inflammation caused by RSV: pretreatment for 24 hours, measured by decrease in IP-10
# Method: as §1, §2
# [7] = tested on: H1N1 influenza virus; format: cell-based; conditions: at a concentration of 1 mg/mL
# [8] = tested on: interferon-inducible protein 10 (IP-10); experiment: IP-10 in RSV-infected PBMCs, 6′SL (Example 44); format: cell-based, human; conditions: 0.1 mg/mL to 1 mg/mL; RSV MOI 1.0; 4 donors; 48 hours; FIG. 18
# Method: Specifically, 6′SL was added individually at concentrations of 0.1 mg/mL, 0.2 mg/mL, 0.5 mg/mL or 1.0 mg/mL to fresh peripheral blood mononuclear cells (PCMBs) and incubated at 37° C. in 5% CO2 to pretreat the cells for approximately 24 hours. After approximately 24 hours, some variables are then incubated with RSV at a multiplicity of infection (MOI) of 1.0 for approximately 1 hour at 37° C. in 5% in CO2. Uninfected control variables are incubated with medium for approximately 1 hour at 37° C. in 5% CO2. After approximately 1 hour, fresh medium alone or containing the appropriate concentrations of 6′SL is added to the appropriate variables, and the PBMCs are incubated for 48 hours at 37° C. in 5% CO2. Supernatants are collected at 48 hours post-infection. Cytokines are measured in supernatants for each variable at 48 hours to assess the effects of HMOs on the early immune response to RSV.
# Interferon-inducible Protein 10 (IP-10, also known as CXCL10) is a CXC chemokine that attracts, binds to and activates the CXCR3 receptor on Natural Killer Cells and Memory T cells. IP-10 is expressed by monocytes and a number of other cells, and is induced by interferon. A positive correlation exists between RSV clinical disease severity in children (as measured by: length of hospital stay, fever, and number of days supplemental O2 was required) and serum IP-10. […]
# [9] = tested on: H1N1 influenza virus; format: cell-based; conditions: 10 mg/mL; MDCK cells; FIG. 1
# [10] = tested on: H1N1 influenza A virus (IAV); experiment: H1N1 influenza A virus replication (IAV M gene copy numbers) in Calu3 cells (Example 43); format: cell-based; conditions: Calu3 lung epithelial cells; MOI 0.01; FIG. 17
# [11] = in the presence or absence of the virus
SMILES,"production of monocyte-derived cytokines (IL-10, MIP-1β, Interferon-γ, IL-8, IL-1α, IL-1β, IL-1ra) [1, 11]","IL-10 response, Donor A and Donor E [2]",IL-10 concentration [3],concentrations that decrease viral load or inhibit IAV replication (IAV M gene copies) [4],concentrations that decrease viral load or inhibit RSV replication (RSV NS1 copies) [5],IP-10 level compared with uninfected controls ([6]; RSV MOI 0.1),IP-10 in virus-infected variables ([6]; RSV MOI 0.1),reduction of inflammation caused by RSV [6],"production of monocyte-derived cytokines (MIP-1β, Interferon-γ, IL-8, IL-1ra) [1, 11]","IL-10 response, Donor B and Donor E [2]",anti-viral activity against H1N1 influenza virus [7],"RSV-induced IP-10, Donor B ([6]; RSV MOI 0.1, Donor B)","RSV-induced IP-10, Donor E ([6]; RSV MOI 0.1, Donor E)",IP-10 in RSV infected PBMCs [8],"production of monocyte-derived cytokines (IL-10, MIP-1β, Interferon-γ, IL-8, IL-1α, IL-1β, IL-1ra) ([1]; in the absence of the virus)",inhibition of virus infectivity [9],concentrations that decrease viral load or inhibit IAV replication (IAV M gene copies) [10]
"CC(=O)N[C@H]1[C@H](O[C@H]2[C@@H](O)[C@@H](CO)O[C@@H](O[C@H]3[C@H](O)[C@@H](O)C(O)O[C@@H]3CO)[C@@H]2O)O[C@H](CO)[C@@H](O[C@@H]2O[C@H](CO)[C@H](O)[C@H](O)[C@H]2O)[C@@H]1O (mixture of isomers) [LNnT, lacto-N-neotetraose]",immunomodulatory,clear dose-dependent increase in IL-10 response,increases IL-10 concentration in a dose-dependent manner,≥ 1 µg/mL,≥ 10 µg/mL,reduce IP-10 to levels found in uninfected controls,clearly downregulates IP-10,effective in reducing inflammation caused by RSV,,,,,,,,,
"CC(=O)N[C@H]1[C@H]([C@H](O)[C@H](O)CO)O[C@@](O[C@H]2[C@@H](O)[C@@H](CO)O[C@@H](O[C@H]3[C@H](O)[C@@H](O)C(O)O[C@@H]3CO)[C@@H]2O)(C(=O)O)C[C@@H]1O (stereo partly drawn) [3′SL, 3′-sialyllactose]",,,,,,,,effective in reducing inflammation caused by RSV,immunomodulatory,do not increase IL-10,inhibited,not effective,downregulates RSV-induced IP-10,,,,
"CC(=O)N[C@H]1[C@H]([C@H](O)[C@H](O)CO)O[C@@](OC[C@H]2O[C@@H](O[C@H]3[C@H](O)[C@@H](O)[C@H](O)O[C@@H]3CO)[C@H](O)[C@@H](O)[C@H]2O)(C(=O)O)C[C@@H]1O [6′SL, 6′-sialyllactose]",,,,,,reduce IP-10 to levels found in uninfected controls,clearly downregulates IP-10,effective in reducing inflammation caused by RSV,,clear dose-dependent increase in IL-10 response,,,,dose-dependent downregulation of IP-10,immunomodulatory,approximately 60%,≥ 10 µg/mL
"OC[C@H]1O[C@@H](O[C@H]2[C@H](O)[C@@H](O)C(O)O[C@@H]2CO)[C@H](O)[C@@H](O)[C@H]1O (stereo partly drawn) [lactose, Lactose, reference compound]",,do not increase IL-10,,,,,,,,do not increase IL-10,,,,,,,
